Laboratory results published in the supplement of paper PMC10883282.

Assays:
Assay in all cases: standardised AUC of viability dose-response curve (72 h) (fraction (0-1)); higher = less growth inhibition (more resistant)
A204 = system: A204
Outline: (§1)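 After 72 h with 2.5 µl of compound (compound-plate series 10 mM to 0.0002 mM), triplicate wells of sarcoma cell lines in 384-well plates were read with ATPLite, with viability scaled 1 (full) to 0 (none) and fitted with a four-parameter log-logistic model. The values give the standardised area under the dose-response curve in log-dose space from a modified drexplorer computeAUC. A value of 1 means no response and 0 means full response.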

G401 = system: G401
Outline: as §1

HS729 = system: HS729
Outline: as §1

HT1080 = system: HT1080
Outline: as §1

KHOS-240S = system: KHOS-240S
Outline: as §1

KHOS-NP = system: KHOS-NP
Outline: as §1

MES-SA = system: MES-SA
Outline: as §1

RD-ES = system: RD-ES
Outline: as §1

RD = system: RD
Outline: as §1

SK-ES-1 = system: SK-ES-1
Outline: as §1

SK-LMS-1 = system: SK-LMS-1
Outline: as §1

SW1353 = system: SW1353
Outline: as §1

SW684 = system: SW684
Outline: as §1

SW872 = system: SW872
Outline: as §1

SW982 = system: SW982
Outline: as §1

SYO-1 = system: SYO-1
Outline: as §1

VA-ES-BJ = system: VA-ES-BJ
Outline: as §1

Row | Compound | standardised AUC (A204) | standardised AUC (G401) | standardised AUC (HS729) | standardised AUC (HT1080) | standardised AUC (KHOS-240S) | standardised AUC (KHOS-NP) | standardised AUC (MES-SA) | standardised AUC (RD-ES) | standardised AUC (RD) | standardised AUC (SK-ES-1) | standardised AUC (SK-LMS-1) | standardised AUC (SW1353) | standardised AUC (SW684) | standardised AUC (SW872) | standardised AUC (SW982) | standardised AUC (SYO-1) | standardised AUC (VA-ES-BJ)
1 | CC1(COc2ccc3c(c2)ncn3-c2ccc3cccc(N4CCC(N)CC4)c3n2)COC1 [CRENOLANIB] | 0.653 | 0.956 | 0.994 | 0.93 | 0.887 | 0.886 | 0.903 | 0.898 | 0.942 | 0.823 | 0.931 | 0.917 | 0.969 | 0.93 | 0.853 | 0.804 | 0.891
2 | COCCNc1cc(NC(=O)N2CCCc3cc(CN4CCN(C)CC4=O)c(C=O)nc32)ncc1C#N [ROBLITINIB] | 0.963 | 0.979 | 0.971 | 0.996 | 0.983 | 0.994 | 0.975 | 0.978 | 0.992 | 0.976 | 0.988 | 0.995 | 0.994 | 1 | 0.997 | 0.959 | 0.994
3 | CCC(=O)N1CC[C@H](Nc2ncnc3c2CN(c2cnc(OC)c(C(F)(F)F)c2)CC3)C1 [LENIOLISIB] | 0.929 | 0.929 | 0.935 | 0.961 | 0.962 | 0.97 | 0.955 | 0.95 | 0.988 | 0.96 | 0.927 | 0.934 | 0.83 | 0.947 | 0.955 | 0.923 | 0.955
4 | Cn1cc(C2=C(c3cn(C4CCN(Cc5ccccn5)CC4)c4ccccc34)C(=O)NC2=O)c2ccccc21 [ENZASTAURIN] | 0.979 | 1 | 0.995 | 1 | 0.978 | 0.992 | 0.988 | 1 | 0.995 | 0.986 | 0.953 | 0.943 | 0.961 | 0.973 | 0.961 | 0.965 | 1
5 | COc1cc(Nc2ncc(F)c(Nc3ccc4c(n3)N(COP(=O)(O)O)C(=O)C(C)(C)O4)n2)cc(OC)c1OC [FOSTAMATINIB] | 0.774 | 0.842 | 0.871 | 0.968 | 0.798 | 0.911 | 0.885 | 0.857 | 0.906 | 0.757 | 0.854 | 0.819 | 0.886 | 0.803 | 0.755 | 0.779 | 0.845
6 | C[C@]12O[C@H](C[C@]1(O)CO)n1c3ccccc3c3c4c(c5c6ccccc6n2c5c31)CNC4=O [LESTAURTINIB] | 0.646 | 0.821 | 0.762 | 0.802 | 0.72 | 0.762 | 0.64 | 0.62 | 0.821 | 0.526 | 0.721 | 0.764 | 0.805 | 0.655 | 0.614 | 0.656 | 0.667
7 | Cc1cc2c(F)c(Oc3ncnn4cc(OC[C@@H](C)O)c(C)c34)ccc2[nH]1 [BRIVANIB] | 0.973 | 0.994 | 0.989 | 0.996 | 0.996 | 0.995 | 0.985 | 0.996 | 0.991 | 0.987 | 0.985 | 0.999 | 1 | 1 | 0.995 | 0.955 | 1
8 | CN1CCN(c2ccc(C(=O)Nc3n[nH]c4ccc(Cc5cc(F)cc(F)c5)cc34)c(NC3CCOCC3)c2)CC1 [ENTRECTINIB] | 0.944 | 0.904 | 0.915 | 0.957 | 0.901 | 0.973 | 0.933 | 0.88 | 0.888 | 0.87 | 0.928 | 0.924 | 0.927 | 0.893 | 0.885 | 0.868 | 0.957
9 | CCN(CC)CCNC(=O)c1c(C)[nH]c(/C=C2\C(=O)Nc3ccc(F)cc32)c1C [SUNITINIB] | 0.558 | 0.907 | 0.804 | 0.864 | 0.815 | 0.88 | 0.829 | 0.755 | 0.836 | 0.716 | 0.908 | 0.855 | 0.876 | 0.813 | 0.754 | 0.648 | 0.881
10 | CC1(C)CC=C(c2nc(C3CC(C)(C)OC(C)(C)C3)ccc2NC(=O)c2nc(C#N)c[nH]2)CC1 [EDICOTINIB] | 0.985 | 0.987 | 0.931 | 0.984 | 0.987 | 0.994 | 0.971 | 0.994 | 0.984 | 0.976 | 0.99 | 1 | 1 | 1 | 1 | 1 | 0.991
11 | Cc1cc2cc(Oc3ccnc(Nc4cccc(CS(=O)(=O)NCCN(C)C)c4)n3)ccc2[nH]1 [SULFATINIB] | 0.805 | 0.909 | 0.874 | 0.99 | 0.931 | 0.982 | 0.95 | 0.962 | 0.964 | 0.955 | 0.965 | 0.97 | 0.966 | 0.96 | 0.924 | 0.759 | 0.987
12 | CCN1C(=O)N(c2c(F)c(OC)cc(OC)c2F)Cc2cnc3[nH]c(CN4CCOCC4)cc3c21 [PEMIGATINIB] | 0.685 | 0.696 | 0.748 | 0.97 | 0.88 | 0.991 | 0.822 | 0.942 | 0.938 | 0.839 | 0.924 | 0.861 | 0.951 | 0.946 | 0.889 | 0.804 | 0.951
13 | CC(C)Oc1ccc(-c2nn([C@@H](C)c3oc4ccc(F)cc4c(=O)c3-c3cccc(F)c3)c3ncnc(N)c23)cc1F [UMBRALISIB] | 0.969 | 0.983 | 0.939 | 0.984 | 0.983 | 0.994 | 0.989 | 0.993 | 0.998 | 0.985 | 0.966 | 0.949 | 0.937 | 0.987 | 1 | 0.97 | 0.982
14 | CNC(=O)c1ccccc1Sc1ccc2c(/C=C/c3ccccn3)n[nH]c2c1 [AXITINIB] | 0.545 | 0.857 | 0.826 | 0.963 | 0.849 | 0.93 | 0.857 | 0.926 | 0.89 | 0.863 | 0.975 | 0.928 | 0.954 | 0.859 | 0.887 | 0.669 | 0.901
15 | Cc1ccc(Nc2nccc(N(C)c3ccc4c(C)n(C)nc4c3)n2)cc1S(N)(=O)=O [PAZOPANIB] | 0.699 | 0.914 | 0.91 | 0.999 | 0.951 | 0.978 | 0.964 | 0.988 | 0.997 | 0.966 | 0.974 | 0.98 | 0.99 | 0.984 | 0.987 | 0.78 | 1
16 | CC(C)(O)CNc1nc(Nc2ccnc(C(F)(F)F)c2)nc(-c2cccc(C(F)(F)F)n2)n1 [ENASIDENIB] | 0.972 | 0.992 | 0.997 | 0.999 | 0.995 | 0.981 | 0.99 | 0.992 | 0.984 | 0.945 | 0.998 | 0.99 | 0.973 | 0.998 | 1 | 0.958 | 0.991
17 | O=C(Nc1nc2cccc(-c3ccc(CN4CCS(=O)(=O)CC4)cc3)n2n1)C1CC1 [FILGOTINIB] | 0.985 | 0.993 | 0.906 | 0.991 | 0.991 | 0.991 | 0.987 | 0.998 | 0.985 | 0.981 | 0.987 | 0.949 | 0.994 | 0.979 | 0.993 | 0.892 | 0.96
18 | CC(C)(C)c1nc(-c2cccc(NS(=O)(=O)c3c(F)cccc3F)c2F)c(-c2ccnc(N)n2)s1 [DABRAFENIB] | 0.881 | 0.921 | 0.853 | 0.924 | 0.96 | 0.863 | 0.866 | 0.854 | 0.941 | 0.812 | 0.779 | 0.925 | 0.97 | 0.586 | 0.723 | 0.946 | 0.876
19 | COC(=O)N[C@@H](C)CNc1nccc(-c2cn(C(C)C)nc2-c2cc(Cl)cc(NS(C)(=O)=O)c2F)n1 [ENCORAFENIB] | 0.922 | 0.922 | 0.925 | 0.933 | 0.956 | 0.903 | 0.9 | 0.903 | 0.896 | 0.843 | 0.887 | 0.941 | 0.961 | 0.665 | 0.818 | 0.977 | 0.923
20 | CC#CC(=O)N1CCC[C@H]1c1nc(-c2ccc(C(=O)Nc3ccccn3)cc2)c2c(N)nccn12 [ACALABRUTINIB] | 0.985 | 0.992 | 0.995 | 0.998 | 0.986 | 1 | 0.996 | 0.998 | 0.976 | 0.993 | 0.996 | 0.963 | 0.996 | 0.992 | 0.98 | 0.989 | 1
21 | COC(=O)[C@@]1(O)C[C@H]2O[C@]1(C)n1c3ccccc3c3c4c(c5c6ccccc6n2c5c31)C(=O)NC4 [K-252A] | 0.617 | 0.745 | 0.756 | 0.818 | 0.717 | 0.776 | 0.631 | 0.647 | 0.81 | 0.543 | 0.666 | 0.766 | 0.774 | 0.68 | 0.628 | 0.668 | 0.7
22 | O=c1sn(-c2cccc3ccccc23)c(=O)n1Cc1ccccc1 [TIDEGLUSIB] | 0.994 | 0.951 | 0.913 | 0.999 | 0.983 | 0.99 | 0.971 | 0.985 | 0.996 | 0.975 | 0.99 | 0.966 | 0.964 | 0.976 | 0.993 | 0.962 | 0.972
23 | O=S(=O)(c1cccc2cnccc12)N1CCCNCC1 [FASUDIL] | 0.981 | 1 | 0.982 | 0.997 | 0.982 | 0.994 | 0.993 | 1 | 1 | 1 | 0.986 | 0.981 | 0.978 | 0.992 | 0.991 | 0.997 | 0.996
24 | CO[C@H]1C[C@@H]2CC[C@@H](C)[C@@](O)(O2)C(=O)C(=O)N2CCCC[C@H]2C(=O)O[C@H]([C@H](C)C[C@@H]2CC[C@@H](OCCO)[C@H](OC)C2)CC(=O)[C@H](C)/C=C(\C)[C@@H](O)[C@@H](OC)C(=O)[C@H](C)C[C@H](C)/C=C/C=C/C=C/1C [CERTICAN] | 0.633 | 0.849 | 0.926 | 0.962 | 0.819 | 0.971 | 0.548 | 0.76 | 0.765 | 0.684 | 0.645 | 0.835 | 0.841 | 0.688 | 0.728 | 0.885 | 0.604
